Results reported in US6683063B2, “Prevention and treatment of pulmonary bacterial infection or symptomatic pulmonary exposure to endotoxin by inhalation of antiendotoxin drugs” (Eisai Co., Ltd., priority 1995, dated 2004).

Tested on: LPS-induced TNF-α in human whole blood
Assay: Persistence of compounds in human whole blood (preincubation, then LPS challenge, cytokine assay)
Assay type: cell-based
Details: average of 7 separate experiments in triplicate, FIG. 3
Experimental: FIG. 2 depicts the general scheme used to analyze antagonistic efficacy of drug after incubation in whole blood for various times.
Although some of the compounds of this invention are not rapidly removed from the circulation, their activity diminishes with a half-life of 1-3 hours. To maintain antagonistic efficacy, this rapid deactivation may require continuous administration. The study of this deactivation has led to the development of an assay to measure in vitro deactivation of drugs in human whole blood. This is done by preincubating lipid A antagonists with blood for various periods of time followed by addition of the LPS “challenge,” as is described above, incubation for three hours, and assay for released cytokines.

CCCCCCCCCCCC(=O)CC(=O)N[C@H]1[C@@H](OP(=O)(O)O)OC(CO[C@@H]2O[C@H](COC)[C@@H](OP(=O)(O)O)C(OCCC(CCCCCCC)OC(=O)CCC/C=C/C(C)CCCC)[C@H]2NC(=O)CC(=O)CCCCCCCCCCC)[C@@H](O)[C@@H]1OCC[C@H](O)CCCCCCC (stereo partly shown) [Compound B531]
persistence of LPS-antagonist activity (inhibition of TNF-α) versus time of preincubation: loses activity with increasing time of preincubation
